# Assay results published in paper PMC9416163, “Antiproliferative Copper(II) Complexes Bearing Mixed Chelating Ligands: Structural Characterization, ROS Scavenging, In Silico Studies, and Anti-Melanoma Activity” (Pharmaceutics, 2022).
# pIC50: −log10 of the molar value.
# Assays:
# [1] = test system: Human fibroblast cells (BJ); assay: MTT cell viability assay on BJ cells; type: cell-based; conditions: for pIC50: MTT
# Experimental: (§1) Human fibroblast cells (BJ-ATCC CRL-2522, USA) were grown in minimal essential medium (MEM) supplemented with 2 mM L-Glutamine, 10% fetal calf serum (FCS), 100 units/mL of penicillin, and 100 µg/mL of streptomycin at 37 °C in a humidified incubator under an atmosphere containing 5% CO2. Mouse melanoma cells (B16-ATCC CRL-6475, USA) were grown in DMEM (Dulbecco’s Modified Eagle Medium) supplemented with reagents like MEM. All cell cultivation media and reagents were purchased from Biochrom AG (Berlin, Germany) and Sigma-Aldrich (Darmstadt, Germany).
# (§2) Cell viability was evaluated using the MTT assay (3-(4,5-dimethylthiazol-2-yl)-2,5-diphenyltetrazolium bromide) as previously described. Briefly, BJ and B16 cells were seeded in 96-well plates at densities of 10,000 cells/well and 7000 cells/well and further cultured in the medium for 24 h. The next day, the investigated compounds were added at a concentration of 1 to 25 μM for 24 and 48 h. The cells cultivated in medium without the studied samples served as negative controls. After incubation for the desired times, the medium was replaced with MTT solution (1 mg/mL) and incubated for an additional 4 h at 37 °C. Finally, the medium was collected, and DMSO was used to dissolve the insoluble formazan product. A Mithras 940 (Berthold, Bad Wildbad, Germany) plate reader was used to measure the absorbance of the samples at 570 nm. The data were corrected for background, and the percentage of viable cells was obtained using the following equation:Cell viability = [(A570 of treated cells)/(A570 of untreated cells)] × 100 (%)
# (§3) Half-maximal inhibitory concentration (IC50) was determined by fitting the data with a sigmoidal logistic function using Origin 8.1 (Microcal Inc., Northampton, MA, USA) software.
# [2] = test system: B16 murine melanoma cells; assay: MTT cell viability assay on B16 cells; type: cell-based, mouse; conditions: for pIC50: MTT
# Experimental: as §1, §2, §3
# B16 cells = assay: Cell cycle analysis (PI, flow cytometry); type: cell-based, mouse; conditions: 24 h; for cells in the G2/M phase: untreated 15.53%; for cells in the S phase: untreated 25.65%; for cells in the G0/G1 phase: untreated 49.70%; for changes in the cell cycle: 1 μM or 5 μM
# Experimental: Twenty-four hours after treatment of B16 cells with concentrations of 1 and 5 μM of each compound, cells were harvested and fixed with pre-chilled 70% ethanol solution at −20 °C. Cells were incubated with 0.2 mg/mL RNAse and 20 μg/mL propidium iodide (PI) in a 0.1% Triton TX-100 solution, in the dark, for 30 min at 37 °C. Cell cycle distribution was analyzed using a Beckman Coulter Cell Lab Quanta SC Flow Cytometer (Indianapolis, IN, USA), and the data were analyzed using the Quanta Analysis software.
# [3] = EPR, interaction with superoxide (KO2); conditions: 100 µM in DMSO, KO2 added
# Experimental: The C, N, and H chemical analyses were carried out with a EuroEA elemental analyzer. Fourier Transform Infrared spectroscopy (FTIR) spectra were recorded with a Tensor 37 spectrometer (Bruker, Billerica, MA, USA) in the 400–4000 cm^−1 range. A Jasco V 670 spectrophotometer (Jasco, Easton, MD, USA) with Spectralon as a standard in the 200–1500 nm range was used to record the UV-Vis spectra in solid-state. A continuous wave X-Band Bruker EMX plus EPR spectrometer (Bruker, Karlsruhe, Germany) equipped with a Bruker X-SHQ 4119HS-W1 X-Band resonator was used for the X-band EPR measurements. The parameters for the X-Band measurements were set as follows: microwave frequency 9.879 GHz, microwave power 6.325 mW, modulation amplitude 0.2 mT, conversion time 74.17 ms, and time constant 40.96 ms at 35 scans. All measurements were carried out at room temperature. Simultaneous Thermogravimetric/Differential Scanning Calorimetry–Mass spectroscopy (TG-DSC/MS) measurements were performed on a TGA/DSC1 Thermal Analyser (Mettler Toledo, Schwarzenbach, Switzerland), coupled to a Vacuum Thermostar Mass Spectrometer (Pfeiffer, Asslar, Germany) under the following conditions: isothermal conditioning at 25 °C, temperature range from 25 to 800 °C, heating rate 5 °C/min, dynamic air atmosphere with a flow rate of 100 mL/min, sample masses of 2–4 mg, 150 μL platinum crucible; empty crucible served as reference. The blank curve was subtracted. Evolved gasses were introduced into the Mass Spectrometer via a 75 cm heated capillary.
# In contrast, all compounds in the presence of HO⋅ radicals show the trapping ability of these radicals, as indicated by the additional EPR signals in all four EPR spectra.
# MKN-45 cells = test system: MKN-45 cells; design: method as in doi:10.1080/00958972.2018.1447668; conditions: 48 h of incubation; cited from earlier work
SMILES,cell viability ([1]; 10 μM),pIC50 ([1]; 24 h),pIC50 ([1]; 48 h),cell viability ([1]; up to 25 μM),cell viability ([2]; 10 μM),pIC50 ([2]; 24 h),pIC50 ([2]; 48 h),cell viability ([2]; up to 25 μM),cells in the G2/M phase (B16 cells; 5 μM),cells in the S phase (B16 cells; 5 μM),cells in the G0/G1 phase (B16 cells; 5 μM),response to O2⋅^− radicals (EPR) [3],"cells in the sub-G1 phase (B16 cells; 5 μM, untreated 9.11%)",cytotoxicity compared with 5-fluorouracil (MKN-45 cells),changes in the cell cycle (B16 cells)
"CC(=O)C=C([O-])c1ccccc1.O.O=[N+]([O-])[O-].[Cu+2].c1cnc2c(c1)ccc1cccnc12 [Compound (2), [Cu(phen)(bzac)(NO3)]⋅H2O]",20%,5.31,5.61,about 15%,10%,5.58,5.84,about 5%,10.78%,13.81%,54.90%,exhibit a scavenging response,–,–,–
"CC(=O)C=C([O-])c1ccccc1.[Cu+2].[O-][Cl+3]([O-])([O-])[O-].c1cnc2c(c1)ccc1cccnc12 [Compound (1), [Cu(phen)(bzac)(ClO4)]]",20%,5.40,5.55,about 15%,10%,5.46,5.66,about 5%,5.59%,15.82%,60.14%,exhibit a scavenging response,18.43%,significantly more cytotoxic against MKN-45 cells than 5-fluorouracil,–
"CC(=O)C=C([O-])c1ccccc1.[Cu+2].[O-][Cl+3]([O-])([O-])[O-].c1ccc(-c2ccccn2)nc1 [Compound (3), [Cu(bpy)(bzac)]ClO4]",–,4.96,4.98,–,–,5.08,5.33,–,–,–,–,exhibit a scavenging response,–,significantly more cytotoxic against MKN-45 cells than 5-fluorouracil,no changes in the cell cycle were observed
"CC(=O)C=C([O-])c1ccccc1.O=[N+]([O-])[O-].[Cu+2].c1ccc(-c2ccccn2)nc1 [Compound (4), [Cu(bpy)(bzac)(NO3)]]",–,4.93,4.99,–,–,5.19,5.33,–,–,–,–,neither scavenging nor a trapping ability toward superoxide radicals,–,–,no changes in the cell cycle were observed
